Source: patent US10375956B2, “Herbicidally active 2-(substituted-phenyl)-cyclopentane-1,3-dione compounds and derivatives thereof” (Syngenta Limited, priority 2013, dated 2019)
Where two headings read alike, the source gives them in different places.

Columns and labels:
Type in all cases: in vivo
[1] = test system: Echinochloa crus-galli (ECHCG); assay: Test 1 glasshouse assay, post-emergence herbicidal activity; conditions: 312 h, after 13 days, read-out: Percentage phytotoxicity ECHCG
Summary of the method: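 Plants sprayed 8 days after sowing with active ingredient in acetone/water (50:50) containing 0.5% Tween 20, grown in glasshouse at 24/16°C day/night, 14 h light, 65% humidity. Phytotoxicity scored visually after 13 days as percentage damage (100% = total damage; 0% = none).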

Lolium perenne (LOLPE) [2] = assay: Test 2 glasshouse assay (IF50 formulation, X-77), pre-emergence herbicidal activity; conditions: 480 h, 250 g/ha, 20DAA, read-out: Percentage phytotoxicity LOLPE
Summary of the method: (§1)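 Plants in soil pots were sprayed 1 day (pre-emergence) or ~12 days (post-emergence) after sowing with IF50 formulation diluted in 0.2% v/v X-77. Cool species were grown at 20/16 °C day/night, 16 h light, 65% humidity. Visual % phytotoxicity was scored at 20DAA (pre) or 15DAA (post).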

Avena fatua (AVEFA) = assay: Test 2 glasshouse assay (IF50 formulation, X-77), post-emergence herbicidal activity; conditions: 360 h, 15 DAA, visual score, read-out: Post-emergence herbicidal activity (percentage phytotoxicity) AVEFA; for pest or weed control at 30 g/ha: application rate 30 g/ha; for pest or weed control at 250 g/ha: application rate 250 g/ha
Summary of the method: as §1

Lolium perenne (LOLPE) [3] = assay: as above; conditions: 360 h, 15 DAA, visual score, read-out: Post-emergence herbicidal activity (percentage phytotoxicity) LOLPE; for pest or weed control at 30 g/ha: application rate 30 g/ha; for pest or weed control at 250 g/ha: application rate 250 g/ha
Summary of the method: as §1

[4] = test system: Alopecurus myosuroides (ALOMY); assay: as above; conditions: 360 h, 15 DAA, visual score, read-out: Post-emergence herbicidal activity (percentage phytotoxicity) ALOMY; for pest or weed control at 30 g/ha: application rate 30 g/ha; for pest or weed control at 250 g/ha: application rate 250 g/ha
Summary of the method: as §1

[5] = test system: Digitaria sanguinalis (DIGSA); assay: as above; conditions: 360 h, 15 DAA, visual score, read-out: Post-emergence herbicidal activity (percentage phytotoxicity) DIGSA; for pest or weed control at 30 g/ha: application rate 30 g/ha; for pest or weed control at 250 g/ha: application rate 250 g/ha
Summary of the method: (§2)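 Percent phytotoxicity is scored by eye 20 days after a pre-emergence spray given one day after sowing, or 15 days after a post-emergence spray given about 12 days after sowing. Spray is IF50 formulation diluted in 0.2% v/v X-77 aqueous adjuvant.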

Setaria faberi (SETFA) = assay: as above; conditions: 360 h, 15 DAA, visual score, read-out: Post-emergence herbicidal activity (percentage phytotoxicity) SETFA; for pest or weed control at 30 g/ha: application rate 30 g/ha; for pest or weed control at 250 g/ha: application rate 250 g/ha
Summary of the method: as §2

[6] = test system: Brassica napus (BRSNN, rape); assay: as above; conditions: 360 h, 15 DAA, visual score, read-out: Post-emergence herbicidal activity (percentage phytotoxicity) BRSNN; for plant injury at 30 g/ha: application rate 30 g/ha; for plant injury at 250 g/ha: application rate 250 g/ha
Summary of the method: (§3)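 Plants grown ~12 days (range 10-13) in glasshouse (cool species 20/16° C., warm 24/18° C. day/night; 16 h light; 65% humidity), then sprayed post-emergence with IF50 formulation in aqueous 0.2% v/v X-77. Visual percentage phytotoxicity scored 15 days after application (100% = total damage, 0% = none).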

[7] = test system: Beta vulgaris (BEAVA, sugarbeet); assay: as above; conditions: 360 h, 15 DAA, visual score, read-out: Post-emergence herbicidal activity (percentage phytotoxicity) BEAVA; for plant injury at 30 g/ha: application rate 30 g/ha; for plant injury at 250 g/ha: application rate 250 g/ha
Summary of the method: as §3

[8] = test system: Triticum aestivum (TRZAW, winter wheat); assay: as above; conditions: 360 h, 15 DAA, visual score, read-out: Post-emergence herbicidal activity (percentage phytotoxicity) TRZAW; for plant injury at 30 g/ha: application rate 30 g/ha; for plant injury at 250 g/ha: application rate 250 g/ha
Summary of the method: as §3

[9] = test system: Glycine max (GLXMA, soybean); assay: as above; conditions: 360 h, 15 DAA, visual score, read-out: Post-emergence herbicidal activity (percentage phytotoxicity) GLXMA; for plant injury at 30 g/ha: application rate 30 g/ha; for plant injury at 250 g/ha: application rate 250 g/ha
Summary of the method: as §3

[10] = post-emergence (Example 1B Table 1)
[11] = post-emergence (Example 1B Table 2)

| SMILES | pest or weed control at 250 g/ha [1, 10] | pest or weed control at 250 g/ha (Lolium perenne (LOLPE) [2]) | pest or weed control at 30 g/ha (Avena fatua (AVEFA)) | pest or weed control at 250 g/ha (Avena fatua (AVEFA)) | pest or weed control at 30 g/ha (Lolium perenne (LOLPE) [3]) | pest or weed control at 250 g/ha (Lolium perenne (LOLPE) [3]) | pest or weed control at 30 g/ha [4] | pest or weed control at 250 g/ha [4] | pest or weed control at 30 g/ha [5] | pest or weed control at 250 g/ha [5] | pest or weed control at 30 g/ha (Setaria faberi (SETFA)) | pest or weed control at 250 g/ha (Setaria faberi (SETFA)) | plant injury at 30 g/ha [6] | plant injury at 250 g/ha [6] | plant injury at 30 g/ha [7] | plant injury at 250 g/ha [7] | plant injury at 30 g/ha [8] | plant injury at 250 g/ha [8] | plant injury at 30 g/ha [9] | plant injury at 250 g/ha [9] | other results |
| --- | --- | --- | --- | --- | --- | --- | --- | --- | --- | --- | --- | --- | --- | --- | --- | --- | --- | --- | --- | --- | --- |
| C#CCC1CC(=O)C(c2c(C)cc(-c3ncc(Cl)cc3F)cc2C)C1=O (centres unmarked) [Compound A3] | 100% | 80% | 40% | 100% | 30% | 90% | 80% | 100% | 100% | 100% | 100% | 100% | 40% | 70% | 40% | 70% | 80% | 90% | 20% | 70% | pest or weed control at 62.5 g/ha [1, 10]: 100%; pest or weed control at 62.5 g/ha [1, 11]: 100%; pest or weed control at 250 g/ha [1, 11]: 100% |
| C#CCC1CC(=O)C(c2c(Cl)cc(-c3ccc(F)cc3)cc2OC)C1=O (centres unmarked) [Compound A7] | 100% | 60% | 20% | 100% | 30% | 80% | 10% | 100% | 100% | 100% | 90% | 100% | 60% | 80% | 20% | 70% | 50% | 90% | 0% | 20% | pest or weed control at 30 g/ha [1, 10]: 100% |
| C#CCC1CC(=O)C(c2cc(-c3ccc(Cl)cc3Cl)ccc2C)C1=O (centres unmarked) [Compound A15] | 70% | 0% |  | 10% |  | 20% |  | 40% |  | 30% |  | 30% |  | 60% |  | 40% |  | 10% |  | 10% |  |
| C#CCC1CC(=O)C(c2c(F)cc(-c3ccc(Cl)cn3)cc2Cl)C1=O (centres unmarked) [Compound A8] | 100% | 80% | 50% | 90% | 40% | 60% | 50% | 80% | 90% | 100% | 90% | 100% | 70% | 80% | 10% | 60% | 30% | 90% | 20% | 40% | pest or weed control at 30 g/ha [1, 10]: 100%; pest or weed control at 62.5 g/ha [1, 11]: 100%; pest or weed control at 250 g/ha [1, 11]: 100% |
| C#CCC1CC(=O)C(c2c(Cl)cc(-c3ccc(F)cc3F)cc2OC)C1=O (centres unmarked) [Compound A12] | 100% | 100% | 10% |  | 30% |  | 60% |  | 70% |  | 20% |  | 50% |  | 40% |  | 40% |  | 0% |  | pest or weed control at 30 g/ha [1, 10]: 100%; pest or weed control at 62.5 g/ha [1, 11]: 100%; pest or weed control at 250 g/ha [1, 11]: 100%; pest or weed control at 125 g/ha (Avena fatua (AVEFA); application rate 125 g/ha): 80%; pest or weed control at 125 g/ha (Lolium perenne (LOLPE) [3]; application rate 125 g/ha): 90%; pest or weed control at 125 g/ha ([4]; application rate 125 g/ha): 80%; pest or weed control at 125 g/ha ([5]; application rate 125 g/ha): 100%; pest or weed control at 125 g/ha (Setaria faberi (SETFA); application rate 125 g/ha): 100%; plant injury at 125 g/ha ([6]; application rate 125 g/ha): 60%; plant injury at 125 g/ha ([7]; application rate 125 g/ha): 40%; plant injury at 125 g/ha ([8]; application rate 125 g/ha): 80%; plant injury at 125 g/ha ([9]; application rate 125 g/ha): 0% |
| C#CCC1CC(=O)C(c2c(Cl)cc(-c3ccc(Cl)cc3)cc2OC)C1=O (centres unmarked) [Compound A11, 2-[2-chloro-4-(4-chlorophenyl)-6-methoxyphenyl]-4-prop-2-ynylcyclopentane-1,3-dione] | 100% | 60% | 20% | 70% | 30% | 40% | 30% | 70% | 100% | 100% | 80% | 100% | 30% | 70% | 20% | 70% | 60% | 90% | 0% | 20% | pest or weed control at 30 g/ha [1, 10]: 100% |
